Source: US9096601B2 (CSPC Zhongqi Pharmaceutical Technology (Shijiazhuang) Co., …, priority 2010, dated 2015)

Legend:
[1] = test system: malignant melanoma cell strain A375; assay: In-vitro tumor cell proliferation inhibition, MTT; format: cell-based, human; settings: 72 hours
[2] = test system: liver cancer cell strain Hep G2; assay: In-vitro tumor cell proliferation inhibition, MTT; format: cell-based, human; settings: 72 hours, read-out: HEPG2 (IC50)
[3] = test system: acute myelogenous leukemia cell strain MV4-11; assay: In-vitro tumor cell proliferation inhibition, MTT; format: cell-based, human; settings: 72 hours
[4] = test system: colon cancer cell strain SW620; assay: In-vitro tumor cell proliferation inhibition, MTT; format: cell-based, human; settings: 72 hours
Procedure, shortened: (§1)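 HCC827 and BT474 grew in RPMI-1640, A431 and SW620 in DMEM (10% FBS), seeded at 6×10^4 (HCC827) or 1-2×10^4 cells/ml overnight. Graded compound doses were applied for 72 h at 37 °C in triplicate, then MTT was added for 2-4 h and A570 was read. IC50 or inhibitory rate was derived versus untreated control.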

[5] = test system: colon cancer cell strain HCT116; assay: In-vitro tumor cell proliferation inhibition, MTT; format: cell-based, human; settings: 72 hours
[6] = test system: squamous cell carcinoma cell strain A431; assay: In-vitro tumor cell proliferation inhibition, MTT; format: cell-based, human; settings: 72 hours
Procedure, shortened: as §1

[7] = test system: breast carcinoma cell strain BT474; assay: In-vitro tumor cell proliferation inhibition, MTT; format: cell-based, human; settings: 72 hours
Procedure, shortened: as §1

[8] = test system: breast carcinoma cell strain MDA-MB-468; assay: In-vitro tumor cell proliferation inhibition, MTT; format: cell-based, human; settings: 72 hours
[9] = test system: chronic granulocytic leukemia cell strain K562; assay: In-vitro tumor cell proliferation inhibition, MTT; format: cell-based, human; settings: 72 hours
[10] = test system: colon cancer cell strain SW480; assay: In-vitro tumor cell proliferation inhibition, MTT; format: cell-based, human; settings: 72 hours
[11] = test system: gastric cancer cell strain MK-45; assay: In-vitro tumor cell proliferation inhibition, MTT; format: cell-based, human; settings: 72 hours, read-out: MK45 (IC50)
MET = MET (Homo sapiens (Human), UniProt P08581); assay: Kinase inhibitory activity, isotopic labeling (γ-33P-ATP); format: biochemical; settings: compound at 10 μM
c-KIT = c-KIT (Homo sapiens (Human), UniProt P10721); assay: as above; format: biochemical; settings: compound at 10 μM
c-KIT, sequence (P10721 26-976): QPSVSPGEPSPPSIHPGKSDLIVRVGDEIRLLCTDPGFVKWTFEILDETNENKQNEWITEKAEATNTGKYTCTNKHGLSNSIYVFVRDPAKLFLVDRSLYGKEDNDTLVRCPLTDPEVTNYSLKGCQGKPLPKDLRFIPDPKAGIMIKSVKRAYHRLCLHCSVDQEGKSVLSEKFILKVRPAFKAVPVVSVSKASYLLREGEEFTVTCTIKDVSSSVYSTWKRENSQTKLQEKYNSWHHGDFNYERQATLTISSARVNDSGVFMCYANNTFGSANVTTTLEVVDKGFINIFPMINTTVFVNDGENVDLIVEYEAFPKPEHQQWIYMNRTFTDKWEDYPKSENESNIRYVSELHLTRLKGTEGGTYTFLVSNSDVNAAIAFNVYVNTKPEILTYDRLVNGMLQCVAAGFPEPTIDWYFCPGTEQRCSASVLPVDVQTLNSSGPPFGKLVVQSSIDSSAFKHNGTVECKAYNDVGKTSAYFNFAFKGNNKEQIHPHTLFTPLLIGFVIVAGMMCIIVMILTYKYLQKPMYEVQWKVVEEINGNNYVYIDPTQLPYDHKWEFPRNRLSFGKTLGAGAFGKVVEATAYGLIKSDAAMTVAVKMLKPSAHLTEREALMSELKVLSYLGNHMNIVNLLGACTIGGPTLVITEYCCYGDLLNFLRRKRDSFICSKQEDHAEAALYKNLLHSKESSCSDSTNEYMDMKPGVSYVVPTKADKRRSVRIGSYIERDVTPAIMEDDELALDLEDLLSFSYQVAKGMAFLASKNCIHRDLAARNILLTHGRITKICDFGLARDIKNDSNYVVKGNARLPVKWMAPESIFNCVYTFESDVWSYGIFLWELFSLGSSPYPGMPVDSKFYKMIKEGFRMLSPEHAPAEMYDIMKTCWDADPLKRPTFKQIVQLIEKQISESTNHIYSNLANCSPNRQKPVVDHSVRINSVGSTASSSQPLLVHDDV

ALK = ALK (Homo sapiens (Human), UniProt Q9UM73); assay: as above; format: biochemical; settings: compound at 10 μM
FLT3 = FLT3 (Homo sapiens (Human), UniProt P36888); assay: as above; format: biochemical; settings: compound at 10 μM
FLT3, sequence (P36888 27-993): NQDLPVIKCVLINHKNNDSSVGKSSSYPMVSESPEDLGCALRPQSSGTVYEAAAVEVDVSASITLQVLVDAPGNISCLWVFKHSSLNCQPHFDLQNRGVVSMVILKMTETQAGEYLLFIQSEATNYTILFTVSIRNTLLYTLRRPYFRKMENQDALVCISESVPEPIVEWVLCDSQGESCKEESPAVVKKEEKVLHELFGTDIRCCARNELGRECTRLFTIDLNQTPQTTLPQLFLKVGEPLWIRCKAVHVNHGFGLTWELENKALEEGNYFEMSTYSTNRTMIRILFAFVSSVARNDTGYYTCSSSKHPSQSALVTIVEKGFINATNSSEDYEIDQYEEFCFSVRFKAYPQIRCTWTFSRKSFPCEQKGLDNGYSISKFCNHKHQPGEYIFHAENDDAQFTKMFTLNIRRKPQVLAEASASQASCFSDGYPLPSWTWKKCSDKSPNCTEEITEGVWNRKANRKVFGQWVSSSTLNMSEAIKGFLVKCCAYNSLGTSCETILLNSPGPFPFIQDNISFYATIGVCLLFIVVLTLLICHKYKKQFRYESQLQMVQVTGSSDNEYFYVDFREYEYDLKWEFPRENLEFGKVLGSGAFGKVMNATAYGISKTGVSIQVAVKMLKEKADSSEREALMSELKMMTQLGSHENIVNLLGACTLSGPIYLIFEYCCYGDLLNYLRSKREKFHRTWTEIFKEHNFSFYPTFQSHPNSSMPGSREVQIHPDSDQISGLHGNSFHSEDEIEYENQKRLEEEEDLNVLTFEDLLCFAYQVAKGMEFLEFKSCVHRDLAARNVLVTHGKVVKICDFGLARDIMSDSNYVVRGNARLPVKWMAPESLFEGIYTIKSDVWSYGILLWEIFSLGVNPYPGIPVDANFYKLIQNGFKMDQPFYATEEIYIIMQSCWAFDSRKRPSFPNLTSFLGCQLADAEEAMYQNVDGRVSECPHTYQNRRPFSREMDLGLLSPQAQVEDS

c-SRC = c-SRC (Homo sapiens (Human), UniProt P12931); assay: as above; format: biochemical; settings: compound at 10 μM
c-SRC, sequence (P12931 whole entry, looked up): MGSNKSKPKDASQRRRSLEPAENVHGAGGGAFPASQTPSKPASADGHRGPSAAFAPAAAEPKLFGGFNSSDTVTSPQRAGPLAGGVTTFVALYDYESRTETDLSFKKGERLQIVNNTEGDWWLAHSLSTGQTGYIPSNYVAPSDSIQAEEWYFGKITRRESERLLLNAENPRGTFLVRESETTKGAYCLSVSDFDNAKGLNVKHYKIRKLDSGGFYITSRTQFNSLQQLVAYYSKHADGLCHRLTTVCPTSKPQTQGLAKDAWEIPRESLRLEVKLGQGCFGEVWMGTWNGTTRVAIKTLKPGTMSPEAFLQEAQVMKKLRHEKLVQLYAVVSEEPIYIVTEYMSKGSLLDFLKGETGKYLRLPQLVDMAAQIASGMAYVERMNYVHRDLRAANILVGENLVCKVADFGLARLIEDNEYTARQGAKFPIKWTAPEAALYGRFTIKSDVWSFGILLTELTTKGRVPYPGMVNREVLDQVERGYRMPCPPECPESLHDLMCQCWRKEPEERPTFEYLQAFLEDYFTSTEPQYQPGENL

VEGFR2 = VEGFR2 (Homo sapiens (Human), UniProt P35968); assay: as above; format: biochemical; settings: ATP 90 μM (Km)
VEGFR2, sequence (P35968 20-1356): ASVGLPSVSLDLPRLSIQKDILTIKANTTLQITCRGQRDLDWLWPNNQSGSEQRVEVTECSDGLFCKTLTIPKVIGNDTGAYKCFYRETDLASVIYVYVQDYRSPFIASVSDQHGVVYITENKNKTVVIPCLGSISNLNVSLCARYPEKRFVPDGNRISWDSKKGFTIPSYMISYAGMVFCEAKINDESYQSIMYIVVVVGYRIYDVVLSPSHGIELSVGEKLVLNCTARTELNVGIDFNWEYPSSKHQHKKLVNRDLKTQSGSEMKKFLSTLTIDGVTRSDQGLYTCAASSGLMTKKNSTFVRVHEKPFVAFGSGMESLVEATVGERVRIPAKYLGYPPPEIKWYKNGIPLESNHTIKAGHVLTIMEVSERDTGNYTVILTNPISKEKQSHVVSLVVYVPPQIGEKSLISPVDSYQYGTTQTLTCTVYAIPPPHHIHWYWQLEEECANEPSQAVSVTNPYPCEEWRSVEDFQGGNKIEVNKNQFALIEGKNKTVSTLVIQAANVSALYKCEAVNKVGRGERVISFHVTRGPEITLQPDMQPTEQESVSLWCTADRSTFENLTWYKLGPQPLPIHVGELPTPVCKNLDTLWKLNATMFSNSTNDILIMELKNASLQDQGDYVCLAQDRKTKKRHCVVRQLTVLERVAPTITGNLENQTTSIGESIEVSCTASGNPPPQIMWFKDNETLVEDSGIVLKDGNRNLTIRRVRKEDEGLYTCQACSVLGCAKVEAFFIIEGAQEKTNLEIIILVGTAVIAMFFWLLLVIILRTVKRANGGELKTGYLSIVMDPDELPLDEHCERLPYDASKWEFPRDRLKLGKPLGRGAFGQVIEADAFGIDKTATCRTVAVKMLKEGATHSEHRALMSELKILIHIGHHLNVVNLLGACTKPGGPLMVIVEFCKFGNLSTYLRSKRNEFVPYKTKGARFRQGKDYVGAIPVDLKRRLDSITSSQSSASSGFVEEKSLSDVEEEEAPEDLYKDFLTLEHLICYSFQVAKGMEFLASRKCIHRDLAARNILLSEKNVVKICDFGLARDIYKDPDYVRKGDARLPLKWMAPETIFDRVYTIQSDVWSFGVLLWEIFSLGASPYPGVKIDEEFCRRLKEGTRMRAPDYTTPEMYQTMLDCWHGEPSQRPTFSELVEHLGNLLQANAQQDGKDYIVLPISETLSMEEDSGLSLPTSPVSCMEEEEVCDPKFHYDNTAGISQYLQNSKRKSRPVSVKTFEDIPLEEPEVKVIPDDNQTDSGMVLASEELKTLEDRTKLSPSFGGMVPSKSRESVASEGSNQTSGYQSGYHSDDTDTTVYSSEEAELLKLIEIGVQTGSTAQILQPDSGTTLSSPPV
Procedure, shortened: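 Radiometric γ-33P-ATP assay: kinase (5-10 mU) with its substrate in 8 mM MOPS pH 7.0, 0.2 mM EDTA, 10 mM MnCl2, 10 mM magnesium acetate and test compound. Phosphorylation counted by scintillation after filter-membrane capture; IC50 from inhibition across compound concentrations, staurosporine as reference.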

BTK = BTK (Homo sapiens (Human), UniProt Q06187); assay: as above; format: biochemical; settings: compound at 10 μM
BTK, sequence (Q06187 whole entry): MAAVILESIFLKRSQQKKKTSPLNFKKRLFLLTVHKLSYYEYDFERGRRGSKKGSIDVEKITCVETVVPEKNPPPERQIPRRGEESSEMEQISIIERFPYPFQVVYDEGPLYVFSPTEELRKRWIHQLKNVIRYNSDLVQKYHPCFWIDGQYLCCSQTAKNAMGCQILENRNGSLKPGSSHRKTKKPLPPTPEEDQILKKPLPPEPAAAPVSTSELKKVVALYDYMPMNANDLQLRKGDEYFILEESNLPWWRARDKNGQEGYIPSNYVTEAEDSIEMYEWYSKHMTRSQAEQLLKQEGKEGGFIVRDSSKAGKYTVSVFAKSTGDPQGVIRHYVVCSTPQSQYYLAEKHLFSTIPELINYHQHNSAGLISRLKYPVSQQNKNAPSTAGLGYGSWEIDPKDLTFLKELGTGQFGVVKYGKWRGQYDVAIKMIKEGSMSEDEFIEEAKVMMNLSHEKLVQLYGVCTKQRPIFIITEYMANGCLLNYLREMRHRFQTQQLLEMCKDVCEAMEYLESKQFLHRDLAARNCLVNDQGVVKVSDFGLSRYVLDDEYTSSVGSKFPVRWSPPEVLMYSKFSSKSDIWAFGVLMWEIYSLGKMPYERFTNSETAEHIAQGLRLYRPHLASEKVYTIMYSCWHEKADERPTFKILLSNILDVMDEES

PDGFRα = PDGFRα (Homo sapiens (Human), UniProt P16234); assay: as above; format: biochemical; settings: compound at 10 μM

SMILES | IC50 [1] | IC50 [2] | IC50 [3] | IC50 [4] | IC50 [5] | IC50 [6] | IC50 [7] | IC50 [8] | IC50 [9] | IC50 [10] | IC50 [11] | The kinase activity inhibitory rate (%) by the tested compounds at 10 μM MET (MET) | The kinase activity inhibitory rate (%) by the tested compounds at 10 μM c-KIT (c-KIT) | The kinase activity inhibitory rate (%) by the tested compounds at 10 μM ALK (ALK) | The kinase activity inhibitory rate (%) by the tested compounds at 10 μM FLT3 (FLT3) | The kinase activity inhibitory rate (%) by the tested compounds at 10 μM c-SRC (c-SRC) | IC50 (VEGFR2) | The kinase activity inhibitory rate (%) by the tested compounds at 10 μM BTK (BTK) | The kinase activity inhibitory rate (%) by the tested compounds at 10 μM PDGFRα (PDGFRα)
CC(C)n1c(Nc2ccc(C(F)(F)F)cc2)nc2cnc(Nc3ccc(N4CCN(C)CC4)cc3)nc21 [Compounds 8-27] | 9.79 µM | > 1 µM | 0.088 µM | > 1 µM | > 1 µM | 2.35 µM | 1.18 µM | 1.96 µM | 0.777 µM | 2.6 µM | 6.11 µM | 36% | 93% | 30% | 83% | 98% | 0.009 µM | 74% | 68%
CC(C)n1c(Nc2cccnc2)nc2cnc(Nc3ccc(N4CCN(C)CC4)cc3)nc21 [Compounds 8-29] | 1.88 µM | > 10 µM | 0.004 µM | 5.8 µM | 2.48 µM | 9.02 µM | 2.25 µM | 8.12 µM | 0.24 µM | > 10 µM | 8.17 µM | 50% | 36% | 15% | 99% | 97% | > 1 µM | 60% | 42%
CC(C)n1c(NC2CCCCC2)nc2cnc(Nc3ccc(N4CCN(C)CC4)cc3)nc21 [Compounds 8-30] | > 10 µM | > 10 µM | 7.96 µM | 4.22 µM | > 10 µM | > 10 µM | 4.46 µM | > 10 µM | 5.76 µM | > 10 µM | 5.47 µM | 0% | 0% | 8% | 43% | 67% | > 1 µM | 25% | 21%
C=CC(=O)Nc1cccc(Nc2ncc3nc(Nc4ccccc4)n(C(C)C)c3n2)c1 [Compounds 8-38] | > 10 µM | 2.9 µM | 0.73 µM | 0.37 µM | 0.443 µM | 0.179 µM | 1.68 µM | 0.281 µM | 0.269 µM | > 10 µM | 1.79 µM | 74% | 63% | 22% | 86% | 93% | > 1 µM | 93% | 55%
